From patent US11691972B2, “Compounds for targeted degradation of BRD9” (C4 Therapeutics, Inc., priority 2020, dated 2023)

Each molecule was assayed against T1, BRD9 (Homo sapiens, UniProt Q9H8M2) (assay: HiBiT BRD9 degradation assay in 293T.166 (BRD9-HiBiT) cells). Conditions: Table 1; 293T.166 cells, 2.0 hours; class symbols; read-out: HiBiT-Degradation 293T.166 BRD9 2.0 hours (DC50).
T1 sequence (Q9H8M2 1-597): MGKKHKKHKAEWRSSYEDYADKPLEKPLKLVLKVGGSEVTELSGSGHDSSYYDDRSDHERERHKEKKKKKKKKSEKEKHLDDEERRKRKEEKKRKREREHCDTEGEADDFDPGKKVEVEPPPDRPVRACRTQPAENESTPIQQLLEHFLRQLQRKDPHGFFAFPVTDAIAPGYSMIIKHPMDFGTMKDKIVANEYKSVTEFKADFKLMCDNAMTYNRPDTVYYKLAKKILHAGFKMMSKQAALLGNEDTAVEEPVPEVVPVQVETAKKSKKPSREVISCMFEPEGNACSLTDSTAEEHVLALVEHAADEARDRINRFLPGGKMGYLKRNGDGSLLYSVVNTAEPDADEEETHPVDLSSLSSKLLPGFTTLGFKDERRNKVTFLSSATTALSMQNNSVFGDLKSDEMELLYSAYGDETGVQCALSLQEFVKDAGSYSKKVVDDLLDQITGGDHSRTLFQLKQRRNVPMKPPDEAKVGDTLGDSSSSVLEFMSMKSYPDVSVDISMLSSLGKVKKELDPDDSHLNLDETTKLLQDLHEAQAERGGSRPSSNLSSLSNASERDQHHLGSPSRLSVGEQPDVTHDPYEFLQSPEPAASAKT
Assay type: cell-based
Parameters: endogenously expressing BRD9 with HiBiT fusion tag via CRISPR; host or cells: 293T.166 (BRD9-HiBiT), also expressing LgBiT ectopically
Procedure: Selected compounds were tested in a BRD9 degradation assay using the HiBit Method.
Dulbecco's modified Eagle medium (DMEM) without phenol red and fetal bovine serum (FBS) were purchased from Gibco (Grand Island, N.Y., USA). Nano-Glo® HiBiT Lytic Assay System was purchased from Promega (Madison, Wis., USA). 293T.166 (BRD9-HiBiT) cell line, endogenously expressing BRD9 with HiBiT fusion tag via CRISPR and ectopically expressing LgBiT tag, was purchased from Promega (Madison, Wis., USA). 293T.167 (BRD7-HiBiT) cell line, endogenously expressing BRD7 with HiBiT fusion tag via CRISPR and ectopically expressing LgBiT tag, was purchased from Promega (Madison, Wis., USA). 293T.92 (BRD4-HiBiT) cell line, endogenously expressing BRD4 with HiBiT fusion tag via CRISPR and ectopically expressing LgBiT tag, was generated in-house. Cell culture flasks and 384-well microplates were acquired from VWR (Radnor, Pa., USA).
BRD9 degradation was determined based on quantification of luminescent signal using Nano-Glo® HiBiT Lytic Assay kit. Test compounds were added to the 384-well plate from a top concentration of 10 μM with 11 points, half log titration in duplicates. 293T.166 cells were added into 384-well plates at a cell density of 10,000 cells per well. The plates were kept at 37° C. with 5% CO2 for 2 hours. BRD7 and BRD4 degradation was similarly determined with 293T.167 cells and 293T.92 cells, respectively. The cells treated in the absence of the test compound were the negative control and the cells without Nano-Glo® HiBiT Lytic reagent were the positive control. After 2-hour incubation, Nano-Glo® HiBiT Lytic Assay reagents were added to the cells. Luminescence was acquired on EnVision™ Multilabel Reader (PerkinElmer, Santa Clara, Calif., USA).

| DC50 [nM] | SMILES |
| --- | --- |
| < 100 | COc1cc(-c2cn(C)c(=O)c(C)c2C)cc(Cl)c1CN1CCC(F)(CCC2CCN(c3ccc(NC4CCC(=O)NC4=O)cc3F)CC2)CC1 (centres unmarked) [Compound 153] |
| < 100 | Cn1cc(-c2ccc(CN3CCN(C(=O)CC4CCN(c5ccc(NC6CCC(=O)NC6=O)cc5)CC4)CC3)c(OC(F)(F)F)c2)c2cn[nH]c2c1=O (centres unmarked) [Compound 51] |
| < 100 | COc1cc(-c2cn(C)c(=O)c3cnccc23)cc(OC)c1C(=O)N1CCC(N2CCN(c3ccc(NC4CCC(=O)NC4=O)cc3F)CC2)C(F)(F)C1 (centres unmarked) [Compound 225] |
| < 100 | COc1cc(-c2cn(C)c(=O)c3[nH]ncc23)cc(Cl)c1CN1CCN(C(=O)CC2CCN(c3ccc(NC4CCC(=O)NC4=O)cc3F)CC2)CC1 (centres unmarked) [Compound 66] |
| < 100 | COc1cc(-c2cn(C)c(=O)c(C)c2C)cc(Cl)c1CN1CCc2c(CC3CCN(c4ccc(NC5CCC(=O)NC5=O)cc4F)CC3)cccc2C1 (centres unmarked) [Compound 109] |
| < 100 | COc1cc(-c2cn(C)c(=O)c(C)c2C)cc(OC)c1CN1CCN(C(=O)CC2CCN(c3ccc(NC4CCC(=O)NC4=O)cc3C(F)(F)F)CC2)CC12CC2 (centres unmarked) [Compound 60] |
| < 100 | COc1cc(-c2cn(C)c(=O)c3[nH]ncc23)cc(Cl)c1CN1CCC(CC(=O)N2CCC(c3ccc(NC4CCC(=O)NC4=O)cc3)CC2)CC1 (centres unmarked) [Compound 43] |
| < 100 | COc1cc(-c2cn(C)c(=O)c3[nH]ncc23)cc(Cl)c1C(=O)N1CCC(CC(=O)N2CCC(c3ccc(NC4CCC(=O)NC4=O)cc3)CC2)CC1 (centres unmarked) [Compound 233] |
| 100 to 500 | COc1cc(-c2cn(C)c(=O)c3[nH]ncc23)cc(F)c1CN1CCN(C(=O)Cc2c(F)cc(NC3CCC(=O)NC3=O)cc2F)CC1 (centres unmarked) [Compound 164, 3-[3,5-difluoro-4-[2-[4-[[2-fluoro-6-methoxy-4-(6-methyl-7-oxo-1H-pyrazolo[3,4-c]pyridin-4-yl)phenyl]methyl]piperazin-1-yl]-2-oxo-ethyl]anilino]piperidine-2,6-dione] |
| < 100 | CN(C(=O)N1CCC(c2ccc(NC3CCC(=O)NC3=O)cc2)CC1)C1CCN(C(=O)c2ccc(-c3cn(C)c(=O)c4ccccc34)cc2OC(F)(F)F)CC1 (centres unmarked) [Compound 127] |
| < 100 | COc1cc(-c2cn(C)c(=O)c3ccccc23)cc(Cl)c1C(=O)N1CCC(N(C)C(=O)N2CCC(c3ccc(NC4CCC(=O)NC4=O)cc3)CC2)CC1 (centres unmarked) [Compound 136] |
| < 100 | COc1cc(-c2cn(C)c(=O)c3[nH]ncc23)cc(OC)c1CN1CCN(C(=O)CC2(O)CCN(c3ccc(NC4CCC(=O)NC4=O)cc3C(F)(F)F)CC2)CC1 (centres unmarked) [Compound 68, 3-[4-[4-[2-[4-[[2,6-dimethoxy-4-(6-methyl-7-oxo-1H-pyrazolo[3,4-c]pyridin-4-yl)phenyl]methyl]piperazin-1-yl]-2-oxo-ethyl]-4-hydroxy-1-piperidyl]-3-(trifluoromethyl)anilino]piperidine-2,6-dione] |
| < 100 | COc1cc(-c2cn(C)c(=O)c3cnccc23)cc(OC)c1CN1CCN(C(=O)CN2CCC(c3ccc(NC4CCC(=O)NC4=O)cc3)CC2)CC1 (centres unmarked) [Compound 15] |
| < 100 | COc1cc(-c2cn(C)c(=O)c3cnccc23)cc(Cl)c1C(=O)N1CCc2c(CC3CCN(c4ccc(NC5CCC(=O)NC5=O)cc4F)CC3)cccc2C1 (centres unmarked) [Compound 235] |
| < 100 | COc1cc(-c2cn(C)c(=O)c(C)c2C)cc(Cl)c1CN1CCC(N2CCN(c3ccc(NC4CCC(=O)NC4=O)cc3F)CC2)C(F)(F)C1 (centres unmarked) [Compound 190] |
| < 100 | COc1cc(-c2cn(C)c(=O)c3cnccc23)cc(F)c1C(=O)N1CCC(C2CCN(c3ccc(NC4CCC(=O)NC4=O)cc3F)CC2)CC1 (centres unmarked) [Compound 215] |
| < 100 | COc1cc(-c2cn(C)c(=O)c3[nH]ncc23)cc(OC)c1CN1CCN(C(=O)CN2CCC(c3ccc(NC4CCC(=O)NC4=O)cc3)CC2)CC1 (centres unmarked) [Compound 1, 3-[4-[1-[2-[4-[[2,6-dimethoxy-4-(6-methyl-7-oxo-1H-pyrazolo[3,4-c]pyridin-4-yl)phenyl]methyl]piperazin-1-yl]-2-oxo-ethyl]-4-piperidyl]anilino]piperidine-2,6-dione] |
| < 100 | Cn1cc(-c2ccc(CN3CCC(N4CCN(c5ccc(NC6CCC(=O)NC6=O)cc5F)CC4)C(F)(F)C3)c(OC(F)(F)F)c2)c2ccncc2c1=O (centres unmarked) [Compound 193] |
| < 100 | COc1cc(-c2cn(C)c(=O)c3ccccc23)cc(OC)c1C(=O)N1CCC(N(C)C(=O)N2CCC(c3ccc(NC4CCC(=O)NC4=O)cc3)CC2)CC1 (centres unmarked) [Compound 135] |
| < 100 | COc1cc(-c2cn(C)c(=O)c3[nH]ncc23)cc(OC)c1CN1CCN(C(=O)Cc2ccc(-c3ccc(NC4CCC(=O)NC4=O)cc3)cc2)CC1 (centres unmarked) [Compound 167, 3-[4-[4-[2-[4-[[2,6-dimethoxy-4-(6-methyl-7-oxo-1H-pyrazolo[3,4-c]pyridin-4-yl)phenyl]methyl]piperazin-1-yl]-2-oxo-ethyl]phenyl]anilino]piperidine-2,6-dione] |
| < 100 | COc1cc(-c2cn(C)c(=O)c3[nH]ncc23)cc(OC)c1CN1CCN(C(=O)Cc2ccc(NC3CCC(=O)NC3=O)cc2F)CC1 (centres unmarked) [Compound 41, 3-[4-[2-[4-[[2,6-dimethoxy-4-(6-methyl-7-oxo-1H-pyrazolo[3,4-c]pyridin-4-yl)phenyl]methyl]piperazin-1-yl]-2-oxo-ethyl]-3-fluoro-anilino]piperidine-2,6-dione] |
| < 100 | COc1cc(-c2cn(C)c(=O)c3[nH]ncc23)cc(Cl)c1CN1CCc2c(cccc2CN2CCC(c3ccc(NC4CCC(=O)NC4=O)cc3)C(F)(F)C2)C1 (centres unmarked) [Compound 100] |
| < 100 | COc1cc(-c2cn(C)c(=O)c3cnccc23)cc(OC)c1CN1CCc2cc(C3CCN(c4ccc(NC5CCC(=O)NC5=O)cc4C(F)(F)F)CC3)ccc2C1 (centres unmarked) [Compound 231, 3-[4-[4-[2-[[2,6-dimethoxy-4-(2-methyl-1-oxo-2,7-naphthyridin-4-yl)phenyl]methyl]-3,4-dihydro-1H-isoquinolin-6-yl]-1-piperidyl]-3-(trifluoromethyl)anilino]piperidine-2,6-dione] |
| < 100 | COc1cc(-c2cn(C)c(=O)c3[nH]ncc23)cc(Cl)c1CN1CCC(F)(CCC2CCN(c3ccc(NC4CCC(=O)NC4=O)cc3F)CC2)CC1 (centres unmarked) [Compound 151, 3-[4-[4-[2-[1-[[2-chloro-6-methoxy-4-(6-methyl-7-oxo-1H-pyrazolo[3,4-c]pyridin-4-yl)phenyl]methyl]-4-fluoro-4-piperidyl]ethyl]-1-piperidyl]-3-fluoro-anilino]piperidine-2,6-dione] |
| < 100 | COc1cc(-c2cn(C)c(=O)c3[nH]ncc23)cc(OC)c1CN1CCc2c(CC3CCN(c4ccc(NC5CCC(=O)NC5=O)cc4)CC3)cccc2C1 (centres unmarked) [Compound 104, 3-[4-[4-[[2-[[2,6-dimethoxy-4-(6-methyl-7-oxo-1H-pyrazolo[3,4-c]pyridin-4-yl)phenyl]methyl]-3,4-dihydro-1H-isoquinolin-5-yl]methyl]-1-piperidyl]anilino]piperidine-2,6-dione] |
| < 100 | COc1cc(-c2cn(C)c(=O)c3cnccc23)cc(OC)c1CN1CCC(N2CCN(c3ccc(NC4CCC(=O)NC4=O)cc3C(F)(F)F)CC2)C(F)(F)C1 (centres unmarked) [Compound 185] |
| < 100 | COc1cc(-c2cn(C)c(=O)c3[nH]ncc23)cc(Cl)c1CN1CCC(N(C)C(=O)N2CCC(c3ccc(OC4CCC(=O)NC4=O)cc3)CC2)CC1 (centres unmarked) [Compound 120] |
| < 100 | COc1cc(-c2cn(C)c(=O)c3[nH]ncc23)cc(Cl)c1CN1CCN(C(=O)CC2CCN(c3ccc(NC4CCC(=O)NC4=O)cc3C(F)(F)F)CC2)CC1 (centres unmarked) [Compound 53] |

Same assay, conditions: Table 2; 293T.166 cells, 2.0 hours; class symbols; read-out: HiBiT-Degradation 293T.166 BRD9 2.0 hours (DC50)

| DC50 [nM] | SMILES |
| --- | --- |
| < 100 | COc1cc(-c2cn(C)c(=O)c(C)c2C)cnc1CN1CCC(N2CCN(c3ccc(NC4CCC(=O)NC4=O)cc3F)CC2)C(F)(F)C1 (centres unmarked) [Compound 260, 3-[4-[4-[3,3-difluoro-1-[[3-methoxy-5-(1,4,5-trimethyl-6-oxo-3-pyridyl)-2-pyridyl]methyl]-4-piperidyl]piperazin-1-yl]-3-fluoro-anilino]piperidine-2,6-dione] |
